According to PubChem BioAssay AID328 (DTP/NCI, 2004):
Where “and” joins values, the source holds several entries; their conditions need not be identical. Equal entries are not always repeated. Inconclusive results and toxic doses are left out.

Test system: BDF1 mice, P388 leukemia ip, median survival T/C
Experiment: NCI In Vivo Anticancer Drug Screen. Data for tumor model P388 Leukemia (intraperitoneal) in B6D2F1 (BDF1) mice
Details: endpoint: median survival time, higher = longer survival
Procedure: The antitumor activity of compounds was measured in mice bearing transplantable tumors. Survival or tumor size were measured and the results are expressed as the measurement made in the treated group (T) divided by the measurement made in the vehicle treated control group (C). The tumor model used in this assay is P388 Leukemia (intraperitoneal) in B6D2F1 (BDF1) mice

[1] = dose: 50.0 mg/kg/injection, schedule: Q01DX009 (ip), vehicle: saline with Tween-80
[2] = dose: 100.0 mg/kg/injection, schedule: Q01DX009 (ip), vehicle: saline with Tween-80
[3] = dose: 200.0 mg/kg/injection, schedule: Q01DX009 (ip), vehicle: saline with Tween-80
[4] = dose: 50.0 mg/kg/injection, schedule: Q01DX009 (ip), vehicle: saline

Compound: COc1ccc(/C=C/C(=O)c2ccccc2)cc1OC
- T/C (dose: 37.5 mg/kg/injection, schedule: Q01DX009 (ip), vehicle: Klucel (hydroxypropylcellulose) (HPC)): 117 % of control
- T/C (dose: 50.0 mg/kg/injection, schedule: Q01DX009 (ip), vehicle: water): 92 % of control
- T/C (dose: 75.0 mg/kg/injection, schedule: Q01DX009 (ip), vehicle: Klucel (hydroxypropylcellulose) (HPC)): 111 % of control
- T/C (dose: 100.0 mg/kg/injection, schedule: Q01DX006 (ip), vehicle: water): 115 % of control
- T/C (dose: 100.0 mg/kg/injection, schedule: Q01DX009 (ip), vehicle: Klucel (hydroxypropylcellulose) (HPC)): 105 % of control
- T/C (dose: 100.0 mg/kg/injection, schedule: Q01DX009 (ip), vehicle: water): 115 % of control
- T/C (dose: 100.0 mg/kg/injection, schedule: Q04DX003 (ip), vehicle: Klucel (hydroxypropylcellulose) (HPC)): 113 % of control
- T/C (dose: 100.0 mg/kg/injection, schedule: Q04DX003 (ip), vehicle: water): 86 % of control
- T/C (dose: 150.0 mg/kg/injection, schedule: Q01DX009 (ip), vehicle: Klucel (hydroxypropylcellulose) (HPC)): 105 % of control
- T/C (dose: 200.0 mg/kg/injection, schedule: Q01DX006 (ip), vehicle: water): 108 % of control
- T/C (dose: 200.0 mg/kg/injection, schedule: Q01DX009 (ip), vehicle: Klucel (hydroxypropylcellulose) (HPC)): 100 % of control
- T/C (dose: 200.0 mg/kg/injection, schedule: Q04DX003 (ip), vehicle: Klucel (hydroxypropylcellulose) (HPC)): 90 % of control
- T/C (dose: 200.0 mg/kg/injection, schedule: Q04DX003 (ip), vehicle: water): 100 % of control
- T/C (dose: 300.0 mg/kg/injection, schedule: Q01DX009 (ip), vehicle: Klucel (hydroxypropylcellulose) (HPC)): 107 % of control and 111 % of control
- T/C (dose: 400.0 mg/kg/injection, schedule: Q01DX006 (ip), vehicle: water): 150 % of control
- T/C (dose: 400.0 mg/kg/injection, schedule: Q01DX009 (ip), vehicle: Klucel (hydroxypropylcellulose) (HPC)): 109 % of control and 115 % of control
- T/C (dose: 400.0 mg/kg/injection, schedule: Q01DX009 (ip), vehicle: water): 124 % of control
- T/C (dose: 400.0 mg/kg/injection, schedule: Q04DX003 (ip), vehicle: Klucel (hydroxypropylcellulose) (HPC)): 100 % of control
- T/C (dose: 400.0 mg/kg/injection, schedule: Q04DX003 (ip), vehicle: water): 98 % of control
- T/C (dose: 500.0 mg/kg/injection, schedule: Q01DX006 (ip), vehicle: water): 161 % of control
- T/C (dose: 500.0 mg/kg/injection, schedule: Q01DX009 (ip), vehicle: Klucel (hydroxypropylcellulose) (HPC)): 100 % of control

Compound: O=C1CCCCC1N1CCCCC1 (stereo unspecified)
- T/C (dose: 50.0 mg/kg/injection, schedule: Q01DX005 (ip), vehicle: saline with Tween-80): 98 % of control
- T/C (dose: 100.0 mg/kg/injection, schedule: Q01DX005 (ip), vehicle: saline with Tween-80): 105 % of control

Compound: O=C1OC2CCC3C1C3C2Br (stereo unspecified)
- T/C (dose: 2.32 mg/kg/injection, schedule: Q04DX003 (ip), vehicle: Klucel (hydroxypropylcellulose) (HPC)): 95 % of control
- T/C (dose: 4.65 mg/kg/injection, schedule: Q04DX003 (ip), vehicle: Klucel (hydroxypropylcellulose) (HPC)): 95 % of control
- T/C (dose: 9.3 mg/kg/injection, schedule: Q04DX003 (ip), vehicle: Klucel (hydroxypropylcellulose) (HPC)): 95 % of control
- T/C (dose: 13.0 mg/kg/injection, schedule: Q04DX003 (ip), vehicle: Klucel (hydroxypropylcellulose) (HPC)): 115 % of control
- T/C (dose: 21.0 mg/kg/injection, schedule: Q04DX003 (ip), vehicle: Klucel (hydroxypropylcellulose) (HPC)): 115 % of control
- T/C (dose: 30.0 mg/kg/injection, schedule: Q04DX003 (ip), vehicle: Klucel (hydroxypropylcellulose) (HPC)): 120 % of control
- T/C (dose: 45.0 mg/kg/injection, schedule: Q04DX003 (ip), vehicle: Klucel (hydroxypropylcellulose) (HPC)): 109 % of control
- T/C (dose: 70.0 mg/kg/injection, schedule: Q04DX003 (ip), vehicle: Klucel (hydroxypropylcellulose) (HPC)): 95 % of control

Compound: COCCn1c2c(nc(C(=O)OC)/c1=N\C(=O)Nc1ccccc1)CCCC2
- T/C [1]: 109 % of control
- T/C [2]: 106 % of control
- T/C [3]: 106 % of control

Compound: C=CCNc1ncnc2c1cnn2C
- T/C (dose: 25.0 mg/kg/injection, schedule: Q01DX009 (ip), vehicle: saline): 95 % of control and 104 % of control
- T/C [4]: 109 % of control
- T/C (dose: 50.0 mg/kg/injection, schedule: Q04DX003 (ip), vehicle: saline): 118 % of control
- T/C (dose: 100.0 mg/kg/injection, schedule: Q01DX009 (ip), vehicle: saline): 104 % of control
- T/C (dose: 100.0 mg/kg/injection, schedule: Q04DX003 (ip), vehicle: saline): 109 % of control
- T/C (dose: 200.0 mg/kg/injection, schedule: Q04DX003 (ip), vehicle: saline): 90 % of control

Compound: CN(C)CCCc1c2ccccc2nc2ccc(Cl)cc12
- T/C (dose: 1.56 mg/kg/injection, schedule: Q01DX009 (ip), vehicle: saline): 109 % of control
- T/C (dose: 3.12 mg/kg/injection, schedule: Q01DX009 (ip), vehicle: saline): 90 % of control
- T/C (dose: 6.0 mg/kg/injection, schedule: Q04DX003 (ip), vehicle: saline): 104 % of control
- T/C (dose: 6.25 mg/kg/injection, schedule: Q01DX009 (ip), vehicle: saline): 100 % of control and 109 % of control
- T/C (dose: 11.0 mg/kg/injection, schedule: Q01DX009 (ip), vehicle: saline): 109 % of control
- T/C (dose: 12.0 mg/kg/injection, schedule: Q04DX003 (ip), vehicle: saline): 109 % of control
- T/C (dose: 12.5 mg/kg/injection, schedule: Q01DX009 (ip), vehicle: saline): 100 % of control
- T/C (dose: 16.0 mg/kg/injection, schedule: Q01DX009 (ip), vehicle: saline): 100 % of control
- T/C (dose: 25.0 mg/kg/injection, schedule: Q04DX003 (ip), vehicle: saline): 109 % of control
- T/C (dose: 37.0 mg/kg/injection, schedule: Q01DX009 (ip), vehicle: saline): 118 % of control
- T/C [4]: 109 % of control

Compound: CC(C)c1cc(C(C)C)n2nc(N)nc2n1
- T/C [2]: 100 % of control
- T/C [3]: 95 % of control
- T/C (dose: 400.0 mg/kg/injection, schedule: Q01DX009 (ip), vehicle: saline with Tween-80): 90 % of control

Compound: CCC(=O)O[C@H]1CC(=O)N(C)c2cc(cc(OC)c2Cl)C/C(C)=C/C=C[C@@H](OC)[C@@]2(O)C[C@H](OC(=O)N2)[C@@H](C)[C@H]2O[C@@]12C
- T/C (dose: 0.8 micrograms/kg/injection, schedule: Q01DX009 (ip), vehicle: saline + alcohol): 170 % of control
- T/C (dose: 0.9 micrograms/kg/injection, schedule: Q01DX009 (ip), vehicle: saline + alcohol): 110 % of control
- T/C (dose: 1.5 micrograms/kg/injection, schedule: Q01DX009 (ip), vehicle: saline + alcohol): 173 % of control
- T/C (dose: 3.1 micrograms/kg/injection, schedule: Q01DX009 (ip), vehicle: saline + alcohol): 168 % of control
- T/C (dose: 6.2 micrograms/kg/injection, schedule: Q01DX009 (ip), vehicle: saline + alcohol): 170 % of control
- T/C (dose: 12.5 micrograms/kg/injection, schedule: Q01DX009 (ip), vehicle: saline + alcohol): 163 % of control and 183 % of control
- T/C (dose: 25.0 micrograms/kg/injection, schedule: Q01DX009 (ip), vehicle: saline + alcohol): 258 % of control and 153 % of control
- T/C (dose: 50.0 micrograms/kg/injection, schedule: Q01DX009 (ip), vehicle: saline + alcohol): 198 % of control and 223 % of control

Compound: CCOC(=O)c1ccc(NC(C)=O)c(CSC)c1
- T/C (dose: 50.0 mg/kg/injection, schedule: Q04DX002 (ip), vehicle: saline with Tween-80): 107 % of control
- T/C (dose: 100.0 mg/kg/injection, schedule: Q04DX002 (ip), vehicle: saline with Tween-80): 98 % of control
- T/C (dose: 200.0 mg/kg/injection, schedule: Q04DX002 (ip), vehicle: saline with Tween-80): 99 % of control

Compound: O=C(CC(O)(C(F)(F)F)C(F)(F)F)c1cccs1
- T/C (dose: 132.0 mg/kg/injection, schedule: Q04DX003 (ip), vehicle: saline with Tween-80): 105 % of control

Compound: C=C(C)C(=O)OC1CC2(C)OC2CC(OC(C)=O)/C(C)=C/C2OC(=O)C(=C)C21 (stereo unspecified)
- T/C (dose: 11.25 mg/kg/injection, schedule: Q01DX009 (ip), vehicle: saline): 118 % of control

Compound: OC(CC1CCCCN1)c1cc2c(Cl)cc(Cl)cc2c2cc(C(F)(F)F)ccc12 (stereo unspecified)
- T/C [1]: 114 % of control

Compound: OP(=S)(c1ccccc1)c1ccccc1
- T/C (dose: 50.0 mg/kg/injection, schedule: Q01DX009 (ip), vehicle: other): 110 % of control
- T/C (dose: 100.0 mg/kg/injection, schedule: Q01DX009 (ip), vehicle: other): 106 % of control
- T/C (dose: 200.0 mg/kg/injection, schedule: Q01DX009 (ip), vehicle: other): 108 % of control
